As a reminder, the kinetic solubility is solubility judged after dilution from a stock solution rather than from solid.

In brackets after ≈: the same amount, converted by molar mass.

Consider 52 molecules from PubChem BioAssay AID1996.

For the series the following is noted: buffer; pH 7.4; 200.0 µM.
As for `CCOc1ccccc1C1CC(=O)Nc2cc(OC)c(OC)cc21` (configuration not stated), the solubility (kinetic) was 0.9 µg/mL (≈ 2.75 µM). The figure for `CCCCC(=O)NC1(C(F)(F)F)NC(=O)N(C)C1=O` (configuration not stated) is > 42.2 µg/mL; for `COc1cc2ncnc(N[C@H](C)c3ccccc3)c2cc1OC` it is > 46.4 µg/mL.

With `N#Cc1ccccc1OCC(=O)NC1CCCCC1`, the solubility (kinetic) was > 38.7 µg/mL. With `Cc1cc(C(=O)Nc2ccccc2C(=O)O)c(C)o1`, the solubility (kinetic) is > 38.9 µg/mL.

For `NC(=S)NNC(=O)COc1ccccc1O`, the kinetic solubility was > 36.2 µg/mL. In the case of `Cc1cccc(-c2nc(C#N)c(NCC3CCCO3)o2)c1` (configuration not stated) it was 2.3 µg/mL (≈ 8.12 µM); in that of `COC(=O)CSc1nc(NCc2ccccc2)nc(N(C)C)n1`, 0.3 µg/mL (≈ 0.9 µM); in that of `CN(C)C1(CNC(=O)Nc2ccccc2)CCCCC1`, > 41.3 µg/mL. Take `Cc1nc2ccccc2c(=O)n1-c1cc([N+](=O)[O-])cc([N+](=O)[O-])c1`: the solubility (kinetic) came to 17.1 µg/mL (≈ 52.4 µM). Consider `Cc1ccccc1OCC(=O)OCC(=O)NC1CC1`, for which the kinetic solubility was > 39.5 µg/mL. The figure for `O=C(COC(=O)c1ccccc1C(F)(F)F)NC(=O)NCc1ccco1` is 19.5 µg/mL (≈ 52.7 µM); for `COc1ccc(OC)c(S(=O)(=O)NCc2ccccn2)c1` it is > 46.3 µg/mL; for `O=C(Nc1nc2ccccc2[nH]1)c1ccc(OC(F)F)cc1` it is 2.4 µg/mL (≈ 7.91 µM). The figure for `Cc1ccc(/C=C(\C#N)C(=O)Nc2cccc(C)n2)cc1` is < 0.2 µg/mL. With `CN(C)CCOC(=O)c1ccc2[nH]c3c(c2c1)CSCC3.Cl`, the kinetic solubility worked out at 49.2 µg/mL.

As for `CN(C)c1ccc(P(=O)(OC2CCCCC2)C(O)c2ccccn2)cc1` (configuration not stated), the solubility (kinetic) is > 56.2 µg/mL. The figure for `Cl.O=S(=O)(CCc1ccncc1)c1ccc(Cl)cc1` is > 47.7 µg/mL; for `CC(=O)Nc1ccc(NC(=O)CC23CC4CC(CC(C4)C2)C3)cc1` it is 21.3 µg/mL (≈ 65.2 µM); for `O=C(NCCNC(=O)c1ccccc1[N+](=O)[O-])c1ccccc1[N+](=O)[O-]` it is 11.4 µg/mL (≈ 31.8 µM). The figure for `COc1ccc(NC(=O)CON=CC(=O)Nc2ccc(C)cc2)c(OC)c1` is 3.8 µg/mL (≈ 10.2 µM).

Molecule `Cc1ccccc1OC(C)C(=O)NCCCN1CCOCC1` (configuration not stated) showed a solubility (kinetic) of 41.5 µg/mL (≈ 135 µM).

Regarding `Cc1ccc(C)c(N=Cc2c(O)c3ccccc3oc2=O)c1`, the solubility (kinetic) amounted to 1.6 µg/mL (≈ 5.45 µM).

As for `CC(Oc1ccc(Cl)cc1C(N)=O)C(=O)N1CCc2ccccc21` (configuration not stated), the solubility (kinetic) came out at 9.6 µg/mL (≈ 27.8 µM). `CCOC(=O)/C(C#N)=C/N1CCOCC1`: the kinetic solubility was > 31.5 µg/mL.

As for `CCN(CC(=O)N1CCCC1)S(=O)(=O)c1cc(C)ccc1OC`, the solubility (kinetic) stood at 49.5 µg/mL (≈ 145 µM).

The molecule `O=C(c1ccco1)N1CCN(Cc2nc3ccccc3[nH]2)CC1` had a solubility (kinetic) of 41.2 µg/mL (≈ 133 µM). In the case of `O=C(Nc1nnc(-c2cccnc2)o1)c1cccc([N+](=O)[O-])c1` it was > 46.7 µg/mL; in that of `CCN(c1ccccc1)c1cc2ccccc2c(=O)[nH]1`, 23.9 µg/mL (≈ 90.4 µM). `O=C(Nc1ccncc1)Nc1ccccc1Cl`: the solubility (kinetic) was found to be 33.5 µg/mL (≈ 135 µM). For `Cc1ccoc1C(=O)N1CCN(C(=O)c2occc2C)CC1`, the kinetic solubility was > 45.3 µg/mL. In the case of `Cc1cccc(C(=O)NCCCNC(=O)c2cccnc2)c1` it was 41.6 µg/mL (≈ 140 µM); in that of `Cc1cc(N)nc(SCC(=O)N2C(C)CCCC2C)n1` (configuration not stated), 38.3 µg/mL (≈ 130 µM). `O=S(=O)(Nc1ccccc1)c1cccc2nsnc12`: the solubility (kinetic) was determined as 39.8 µg/mL (≈ 137 µM). The figure for `O=C1NCCCCC1NS(=O)(=O)c1ccc(F)c(F)c1` (configuration not stated) is 43.1 µg/mL (≈ 142 µM); for `Cc1ccc(NC(=O)c2cc3ccccc3oc2=N)cc1` it is < 0.3 µg/mL. The figure for `COc1ccccc1C(=O)Nc1onc(C)c1C#N` is > 38.6 µg/mL; for `O=C(Nc1ccc(N2CCOCC2)c(S(=O)(=O)Nc2ccccc2Cl)c1)c1ccc(F)cc1` it is 1 µg/mL (≈ 2.04 µM). The figure for `Cn1ccnc1COc1ccc(/C=N/O)cc1` is > 34.7 µg/mL; for `Cc1cccc(NC(=O)c2cccc(NC(=O)c3ccccc3)c2)n1` it is 7.1 µg/mL (≈ 21.4 µM); for `CC(C(Sc1ccccc1N)c1ccccc1)[N+](=O)[O-]` (configuration not stated) it is 15.1 µg/mL (≈ 52.4 µM). With `CC(C(=O)Nc1ccccn1)c1ccccc1` (configuration not stated), the kinetic solubility was > 33.9 µg/mL. The figure for `COc1cccc(N2C(=O)CC(Sc3nc(C)cc(C)n3)C2=O)c1` (configuration not stated) is > 51.5 µg/mL; for `COc1ccccc1NC(=O)C1CCCN(c2cnccn2)C1` (configuration not stated) it is > 46.9 µg/mL. In the case of `CN(CCc1ccccn1)C(=O)c1cccnc1Oc1ccccc1` it was > 50 µg/mL. The figure for `CSc1ccc(NC(=O)NCc2cccnc2)cc1` is > 41 µg/mL; for `Cc1ccc(Nc2cc(C)c(O)c(C)c2)cc1` it is 10.5 µg/mL (≈ 46.2 µM); for `COc1ccccc1C(=O)NCC(=O)NCCc1ccc(Cl)cc1` it is 38.8 µg/mL (≈ 112 µM). For `CSc1ncccc1C(=O)Nc1nccs1`, the solubility (kinetic) is > 37.7 µg/mL.

`CCOc1ccccc1NC(=O)c1ccccc1NC(=O)c1ccco1`: the kinetic solubility was < 0.4 µg/mL. On to `CC(=O)CSc1nnc(-c2ccco2)n1-c1ccccc1`, for which the kinetic solubility is > 44.9 µg/mL. Turning to `O=[N+]([O-])c1ccc2nc(NS(=O)(=O)c3ccc(F)cc3)sc2c1`, the solubility (kinetic) is 49.7 µg/mL (≈ 141 µM).
